Measured values: article PMC9851200, “Multiparameter phenotypic screening for endogenous TFEB and TFE3 translocation identifies novel chemical series modulating lysosome function” (Autophagy, 2022)

Tests used:
Assay type in all cases: binding
[1] = molecular target: kinases (KINOMEscan panel) (Homo sapiens, UniProt P54764); settings: EPHA4; NEW KINOMEscan
[2] = molecular target: T1, kinases (KINOMEscan panel) (Homo sapiens, UniProt P78356); settings: PIP4K2B; NEW KINOMEscan
T1 sequence (P78356 1-416): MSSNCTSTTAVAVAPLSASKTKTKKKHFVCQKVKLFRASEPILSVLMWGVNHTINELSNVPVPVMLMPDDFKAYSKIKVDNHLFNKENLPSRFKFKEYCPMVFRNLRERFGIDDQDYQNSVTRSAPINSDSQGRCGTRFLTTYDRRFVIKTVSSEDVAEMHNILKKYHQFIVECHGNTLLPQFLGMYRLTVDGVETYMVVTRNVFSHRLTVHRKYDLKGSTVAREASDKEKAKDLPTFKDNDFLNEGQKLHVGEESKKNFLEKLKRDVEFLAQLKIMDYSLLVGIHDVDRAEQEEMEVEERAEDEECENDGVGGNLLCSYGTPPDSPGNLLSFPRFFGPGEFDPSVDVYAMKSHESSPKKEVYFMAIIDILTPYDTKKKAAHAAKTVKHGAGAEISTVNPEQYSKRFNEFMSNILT

[3] = molecular target: T2, kinases (KINOMEscan panel) (Homo sapiens, UniProt Q06418); settings: NEW KINOMEscan
T2 sequence (Q06418 41-890): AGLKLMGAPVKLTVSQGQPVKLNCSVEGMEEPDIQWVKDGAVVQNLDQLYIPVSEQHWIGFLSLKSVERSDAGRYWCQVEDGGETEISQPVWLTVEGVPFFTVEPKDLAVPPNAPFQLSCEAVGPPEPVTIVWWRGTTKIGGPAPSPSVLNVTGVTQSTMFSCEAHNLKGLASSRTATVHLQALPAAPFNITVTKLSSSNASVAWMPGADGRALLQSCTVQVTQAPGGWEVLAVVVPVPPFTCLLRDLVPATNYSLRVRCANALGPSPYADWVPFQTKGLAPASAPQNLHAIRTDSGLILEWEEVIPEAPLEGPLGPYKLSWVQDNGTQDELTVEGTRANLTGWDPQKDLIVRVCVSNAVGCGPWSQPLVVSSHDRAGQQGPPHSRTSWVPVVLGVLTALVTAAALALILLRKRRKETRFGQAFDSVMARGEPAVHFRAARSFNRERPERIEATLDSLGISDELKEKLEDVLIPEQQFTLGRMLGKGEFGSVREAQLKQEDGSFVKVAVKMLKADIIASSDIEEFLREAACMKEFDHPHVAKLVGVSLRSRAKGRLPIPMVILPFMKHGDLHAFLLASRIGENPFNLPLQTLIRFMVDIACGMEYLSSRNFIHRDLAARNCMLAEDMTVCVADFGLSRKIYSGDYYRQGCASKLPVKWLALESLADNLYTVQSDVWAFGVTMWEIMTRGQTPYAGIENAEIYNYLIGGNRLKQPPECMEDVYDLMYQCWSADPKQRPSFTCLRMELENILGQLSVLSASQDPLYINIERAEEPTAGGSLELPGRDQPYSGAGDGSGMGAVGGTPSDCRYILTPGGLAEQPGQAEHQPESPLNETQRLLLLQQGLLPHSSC

[4] = molecular target: kinases (KINOMEscan panel) (Homo sapiens, UniProt P00519, F317I); settings: NEW KINOMEscan; for KINOMEscan ABL1(F317I)-phosphorylated: kinase ABL1(F317I)-phosphorylated
[5] = molecular target: T3, kinases (KINOMEscan panel) (Homo sapiens, UniProt Q8IWQ3); settings: kinase BRSK2; NEW KINOMEscan
T3 sequence (Q8IWQ3 1-736): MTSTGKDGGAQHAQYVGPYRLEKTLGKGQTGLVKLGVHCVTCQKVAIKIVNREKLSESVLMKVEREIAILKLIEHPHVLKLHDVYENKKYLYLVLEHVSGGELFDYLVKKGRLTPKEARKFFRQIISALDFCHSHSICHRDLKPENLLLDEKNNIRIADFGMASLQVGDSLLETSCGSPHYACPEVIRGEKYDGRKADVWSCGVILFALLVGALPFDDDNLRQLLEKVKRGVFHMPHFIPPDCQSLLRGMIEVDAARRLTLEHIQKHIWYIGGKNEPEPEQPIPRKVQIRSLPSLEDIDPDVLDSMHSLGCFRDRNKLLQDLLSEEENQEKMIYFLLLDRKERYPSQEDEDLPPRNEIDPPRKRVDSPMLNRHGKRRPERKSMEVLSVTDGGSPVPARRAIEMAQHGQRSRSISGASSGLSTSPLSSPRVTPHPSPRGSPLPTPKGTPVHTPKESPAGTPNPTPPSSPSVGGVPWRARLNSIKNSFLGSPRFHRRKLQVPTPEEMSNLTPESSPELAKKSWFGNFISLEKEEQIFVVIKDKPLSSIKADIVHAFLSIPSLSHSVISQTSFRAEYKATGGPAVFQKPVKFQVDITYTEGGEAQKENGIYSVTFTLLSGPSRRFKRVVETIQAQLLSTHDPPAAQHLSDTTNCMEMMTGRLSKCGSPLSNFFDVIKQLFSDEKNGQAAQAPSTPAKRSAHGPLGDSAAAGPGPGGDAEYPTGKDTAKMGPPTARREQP

[6] = molecular target: kinases (KINOMEscan panel) (Homo sapiens, UniProt P17612); settings: kinase PRKACA; NEW KINOMEscan

Chain of kinases (KINOMEscan panel) (Homo sapiens, UniProt P00519, F317I) (P00519 whole entry F317I): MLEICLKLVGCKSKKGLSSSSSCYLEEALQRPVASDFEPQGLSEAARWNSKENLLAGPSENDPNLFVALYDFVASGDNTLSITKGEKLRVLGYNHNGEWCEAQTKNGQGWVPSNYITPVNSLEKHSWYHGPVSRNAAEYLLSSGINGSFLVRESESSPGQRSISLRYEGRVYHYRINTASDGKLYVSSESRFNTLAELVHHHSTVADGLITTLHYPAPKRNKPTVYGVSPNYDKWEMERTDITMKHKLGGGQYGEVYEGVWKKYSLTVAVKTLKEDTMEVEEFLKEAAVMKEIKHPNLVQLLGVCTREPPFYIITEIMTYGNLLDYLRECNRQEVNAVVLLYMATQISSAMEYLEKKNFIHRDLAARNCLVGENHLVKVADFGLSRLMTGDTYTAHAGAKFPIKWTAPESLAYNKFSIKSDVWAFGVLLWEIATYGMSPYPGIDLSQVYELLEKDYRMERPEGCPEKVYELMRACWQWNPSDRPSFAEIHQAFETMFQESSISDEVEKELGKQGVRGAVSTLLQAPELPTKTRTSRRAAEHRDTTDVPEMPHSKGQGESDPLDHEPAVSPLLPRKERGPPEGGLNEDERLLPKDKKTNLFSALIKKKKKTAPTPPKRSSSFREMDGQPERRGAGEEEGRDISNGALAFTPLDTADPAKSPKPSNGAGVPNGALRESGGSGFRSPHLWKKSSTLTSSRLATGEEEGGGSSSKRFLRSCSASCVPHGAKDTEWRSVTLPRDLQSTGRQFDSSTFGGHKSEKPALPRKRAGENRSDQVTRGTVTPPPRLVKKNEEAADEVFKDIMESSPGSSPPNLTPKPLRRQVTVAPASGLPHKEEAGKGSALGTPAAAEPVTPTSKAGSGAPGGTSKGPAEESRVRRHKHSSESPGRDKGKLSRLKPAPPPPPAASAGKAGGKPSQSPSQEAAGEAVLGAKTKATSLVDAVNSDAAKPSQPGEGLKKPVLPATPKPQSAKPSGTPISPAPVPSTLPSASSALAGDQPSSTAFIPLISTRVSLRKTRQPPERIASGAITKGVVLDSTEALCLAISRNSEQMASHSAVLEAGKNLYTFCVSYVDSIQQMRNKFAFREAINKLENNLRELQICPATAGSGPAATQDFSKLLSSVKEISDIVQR
Chain of kinases (KINOMEscan panel) (Homo sapiens, UniProt P54764) (P54764 20-986): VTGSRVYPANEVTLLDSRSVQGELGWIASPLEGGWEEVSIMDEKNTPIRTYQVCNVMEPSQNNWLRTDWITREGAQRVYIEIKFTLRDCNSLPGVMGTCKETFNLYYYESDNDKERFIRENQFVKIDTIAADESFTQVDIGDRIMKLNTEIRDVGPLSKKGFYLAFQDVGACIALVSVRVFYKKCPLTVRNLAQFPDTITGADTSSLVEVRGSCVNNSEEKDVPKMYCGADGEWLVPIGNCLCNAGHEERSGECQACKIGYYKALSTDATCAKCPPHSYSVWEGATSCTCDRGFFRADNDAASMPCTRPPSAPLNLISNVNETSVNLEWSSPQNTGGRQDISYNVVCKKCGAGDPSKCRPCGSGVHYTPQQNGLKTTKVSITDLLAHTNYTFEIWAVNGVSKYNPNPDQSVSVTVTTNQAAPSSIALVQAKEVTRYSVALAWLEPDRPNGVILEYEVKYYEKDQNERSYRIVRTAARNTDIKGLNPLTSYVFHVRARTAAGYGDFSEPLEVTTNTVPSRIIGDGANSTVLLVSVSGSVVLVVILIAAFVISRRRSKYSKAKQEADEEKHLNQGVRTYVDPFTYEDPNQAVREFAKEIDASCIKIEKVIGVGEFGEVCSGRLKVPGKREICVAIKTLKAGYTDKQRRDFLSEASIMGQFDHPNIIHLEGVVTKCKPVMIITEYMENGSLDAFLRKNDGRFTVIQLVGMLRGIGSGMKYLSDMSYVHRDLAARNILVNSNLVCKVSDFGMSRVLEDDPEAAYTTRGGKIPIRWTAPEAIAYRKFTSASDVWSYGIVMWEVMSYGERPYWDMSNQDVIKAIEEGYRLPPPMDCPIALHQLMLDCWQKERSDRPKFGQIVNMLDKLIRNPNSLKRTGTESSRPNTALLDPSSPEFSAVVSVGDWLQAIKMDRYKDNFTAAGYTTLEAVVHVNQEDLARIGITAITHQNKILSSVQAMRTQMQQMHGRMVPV

Cc1cccc(-c2nc(Nc3ccc4nn(C)cc4c3)c3ccccc3n2)n1 [NK167]
KINOMEscan EPHA4 [1]: 0
KINOMEscan PIP4K2B [2]: 0
KINOMEscan TYRO3 [3]: 4
KINOMEscan ABL1(F317I)-nonphosphorylated [4]: 0
KINOMEscan ABL1(F317I)-phosphorylated [4]: 0
KINOMEscan BRSK2 [5]: 9
KINOMEscan PRKACA [6]: 12

Cc1cccc(-c2nc(N(C)c3ccc4ncsc4c3)c3ccccc3n2)n1 [NK-161]
KINOMEscan EPHA4 [1]: 5
KINOMEscan PIP4K2B [2]: 0
KINOMEscan TYRO3 [3]: 21
KINOMEscan ABL1(F317I)-nonphosphorylated [4]: 9
KINOMEscan ABL1(F317I)-phosphorylated [4]: 0
KINOMEscan BRSK2 [5]: 12
KINOMEscan PRKACA [6]: 17
